molecular target: T1, MAGL (Homo sapiens, UniProt Q99685); test: 2-AG assay: MAGL inhibitory activity by hydrolysis of 2-arachidonoylglycerol to arachidonic acid, followed by mass spectrometry; type: biochemical; conditions: 15 min preincubation, 30 min reaction at RT, 8 μM 2-arachidonoylglycerol
T1 sequence (Q99685 1-303): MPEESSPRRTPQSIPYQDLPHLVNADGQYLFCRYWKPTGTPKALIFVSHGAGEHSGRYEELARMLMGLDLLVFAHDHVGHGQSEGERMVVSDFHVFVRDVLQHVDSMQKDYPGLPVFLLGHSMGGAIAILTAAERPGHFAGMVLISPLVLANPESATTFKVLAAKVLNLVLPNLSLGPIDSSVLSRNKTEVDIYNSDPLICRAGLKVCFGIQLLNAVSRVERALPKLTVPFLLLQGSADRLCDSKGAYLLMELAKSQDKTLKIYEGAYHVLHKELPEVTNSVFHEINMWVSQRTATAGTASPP

SMILES	IC50 [nM]
O=C1NCC2(CN(C(=O)N3CC4(CCC(Cc5ccc(OC(F)F)nc5)CC4)C3)C2)N1 [Example 128, 2-[7-[[6-(difluoromethoxy)-3-pyridyl]methyl]-2-azaspiro[3.5]nonane-2-carbonyl]-2,5,7-triazaspiro[3.4]octan-6-one]	51.9
O=C1COCC2(CN(C(=O)N3CC4(CN(Cc5ccc(S(=O)(=O)C(F)(F)F)cc5)C4)C3)C2)N1 [Example 229, 2-[6-[[4-(trifluoromethylsulfonyl)phenyl]methyl]-2,6-diazaspiro[3.3]heptane-2-carbonyl]-8-oxa-2,5-diazaspiro[3.5]nonan-6-one]	78.4
O=C1NC2(CO1)CN(C(=O)N1CC3(C1)CN(c1cnc(C(F)(F)F)cn1)C3)C2 [Example 206, 2-[6-[5-(trifluoromethyl)pyrazin-2-yl]-2,6-diazaspiro[3.3]heptane-2-carbonyl]-7-oxa-2,5-diazaspiro[3.4]octan-6-one]	278
O=C1CCC2(CN(C(=O)N3CC4(CC(n5cnc(C6CC6)n5)C4)C3)C2)N1 [Example 131, 2-[6-(3-cyclopropyl-1,2,4-triazol-1-yl)-2-azaspiro[3.3]heptane-2-carbonyl]-2,5-diazaspiro[3.4]octan-6-one]	209
Cn1ncc(CC2CC3(C2)CN(C(=O)N2CC4(CCCC(=O)N4)C2)C3)c1C(F)(F)F [Example 276]	92.7
O=C1CCC2(CN(C(=O)N3CC4(C3)CN(S(=O)(=O)c3ccc(OC(F)(F)F)cc3)C4)C2)N1 [Example 199, 2-[2-[4-(trifluoromethoxy)phenyl]sulfonyl-2,6-diazaspiro[3.3]heptane-6-carbonyl]-2,5-diazaspiro[3.4]octan-6-one]	266
O=C1NC2(CO1)CN(C(=O)N1CC3(C1)CN(c1ncc(C(F)(F)F)cc1F)C3)C2 [Example 203, 2-[6-[3-fluoro-5-(trifluoromethyl)-2-pyridyl]-2,6-diazaspiro[3.3]heptane-2-carbonyl]-7-oxa-2,5-diazaspiro[3.4]octan-6-one]	61.6
CC(C)(C)c1ncc(CN2CC3(C2)CN(C(=O)N2CC4(CCC(=O)N4)C2)C3)s1 [Example 331, 2-[6-[(2-tert-butylthiazol-5-yl)methyl]-2,6-diazaspiro[3.3]heptane-2-carbonyl]-2,5-diazaspiro[3.4]octan-6-one]	45.2
O=C1NC2(CO1)CN(C(=O)N1CC3(CCN(Cc4ccc(C(F)(F)F)nc4)CC3)C1)C2 [Example 151, 2-[7-[[6-(trifluoromethyl)-3-pyridyl]methyl]-2,7-diazaspiro[3.5]nonane-2-carbonyl]-7-oxa-2,5-diazaspiro[3.4]octan-6-one]	196
O=C1CCC2(CN(C(=O)N3CC4(CCN(Cc5cc(C(F)(F)F)on5)CC4)C3)C2)N1 [Example 338, 2-[7-[[5-(trifluoromethyl)isoxazol-3-yl]methyl]-2,7-diazaspiro[3.5]nonane-2-carbonyl]-2,5-diazaspiro[3.4]octan-6-one]	178
O=C1CCC2(CN(C(=O)N3CC4(CC(Cc5n[nH]c(C(F)(F)F)n5)C4)C3)C2)N1 [Example 333, 2-[6-[[5-(trifluoromethyl)-1H-1,2,4-triazol-3-yl]methyl]-2-azaspiro[3.3]heptane-2-carbonyl]-2,5-diazaspiro[3.4]octan-6-one]	88.1
O=C1CCC2(CN(C(=O)N3CC4(CN(Cc5cnc(C(F)(F)F)s5)C4)C3)C2)N1 [Example 315, 2-[6-[[2-(trifluoromethyl)thiazol-5-yl]methyl]-2,6-diazaspiro[3.3]heptane-2-carbonyl]-2,5-diazaspiro[3.4]octan-6-one]	206
O=C1CCC2(CN(C(=O)N3CC4(CC(Oc5ccc(Cl)cn5)C4)C3)C2)N1 [Example 303, 2-[6-[(5-chloro-2-pyridyl)oxy]-2-azaspiro[3.3]heptane-2-carbonyl]-2,5-diazaspiro[3.4]octan-6-one]	35.7
N#Cc1ccc(CC2CC3(C2)CN(C(=O)N2CC4(CCCC(=O)N4)C2)C3)c(F)c1 [Example 273, 3-fluoro-4-[[2-(6-oxo-2,5-diazaspiro[3.5]nonane-2-carbonyl)-2-azaspiro[3.3]heptan-6-yl]methyl]benzonitrile]	68.2

Results, then the compound that gave them:

IC50 [nM]	SMILES
31.6	N#Cc1cc(CC2CC3(C2)CN(C(=O)N2CC4(CCCC(=O)N4)C2)C3)ccc1C(F)(F)F [Example 271, 5-[[2-(6-oxo-2,5-diazaspiro[3.5]nonane-2-carbonyl)-2-azaspiro[3.3]heptan-6-yl]methyl]-2-(trifluoromethyl)benzoni-trile]
29.9	O=C1CCC2(CN(C(=O)N3CC4(CC(Cn5cnc(C(F)(F)F)n5)C4)C3)C2)N1 [Example 66, 2-[6-[[3-(trifluoromethyl)-1,2,4-triazol-1-yl]methyl]-2-carbonyl]-2,5-diazaspiro[3.4]octan-6-one]
29.1	Cc1cc(C(F)F)n(CC2CC3(C2)CN(C(=O)N2CC4(CCC(=O)N4)C2)C3)n1 [Example 346, 2-[6-[[5-(difluoromethyl)-3-methyl-pyrazol-1-yl]methyl]-2-azaspiro[3.3]heptane-2-carbonyl]-2,5-diazaspiro[3.4]octan-6-one]
15.1	O=C1NC2(CO1)CN(C(=O)N1CC3(CN(Cc4ncc(F)cc4F)C3)C1)C2 [Example 162, 2-[6-[(3,5-difluoro-2-pyridyl)methyl]-2,6-diazaspiro[3.3]heptane-2-carbonyl]-7-oxa-2,5-diazaspiro[3.4]octan-6-one]
11.2	O=C1CCC2(CN(C(=O)N3CC4(CC(Cc5cnc(C(F)(F)F)cn5)C4)C3)C2)N1 [Example 4, 2-[6-[[5-(trifluoromethyl)pyrazin-2-yl]methyl]-2-azaspiro[3.3]heptane-2-carbonyl]-2,5-diazaspiro[3.4]octan-6-one]
4.43	O=C1NC2(CO1)CN(C(=O)N1CC3(CCC(Oc4ncc(C(F)(F)F)cn4)CC3)C1)C2 [Example 123, 2-[7-[5-(trifluoromethyl)pyrimi-din-2-yl]oxy-2-azaspiro[3.5]nonane-2-carbonyl]-7-oxa-2,5-diazaspiro[3.4]octan-6-one]
4.11	O=C1NC2(CO1)CN(C(=O)N1CC3(CCN(Cc4ccc(C(F)(F)F)cn4)C3)C1)C2 [Example 154, 2-[7-[[5-(trifluoromethyl)-2-pyridyl]methyl]-2,7-diazaspiro[3.4]octane-2-carbonyl]-7-oxa-2,5-diazaspiro[3.4]octan-6-one]
3.07	O=C1CCC2(CN(C(=O)N3CC4(CCN(Cc5ccc(C(F)(F)F)nc5)C4)C3)C2)N1 [Example 152, 2-[7-[[6-(trifluoromethyl)-3-pyridyl]methyl]-2,7-diazaspiro[3.4]octane-2-carbonyl]-2,5-diazaspiro[3.4]octan-6-one]
1.09	O=C1NCC2(CN(C(=O)N3CC4(CC(Cc5ccc(F)cc5C(F)(F)F)C4)C3)C2)N1 [Example 34, 2-[6-[4-fluoro-2-(trifluoromethyl)benzyl]-2-azaspiro[3.3]heptane-2-carbonyl]-2,5,7-triazaspiro[3.4]octan-6-one]
0.6	N#Cc1ccc(CC2CC3(C2)CN(C(=O)N2CC4(CCC(=O)N4)C2)C3)c(F)c1 [Example 251, 3-fluoro-4-[[2-(6-oxo-2,5-diazaspiro[3.4]octane-2-carbonyl)-2-azaspiro[3.3]heptan-6-yl]methyl]benzonitrile]
0.37	O=C1NC2(CO1)CN(C(=O)N1CC3(CCC(Nc4ccc(C(F)(F)F)cn4)CC3)C1)C2 [Example 95, 2-[7-[[5-(trifluoromethyl)-2-pyridyl]amino]-2-azaspiro[3.5]nonane-2-carbonyl]-7-oxa-2,5-diazaspiro[3.4]octan-6-one]
0.2	N=[S@](=O)(c1cccc(CC2CC3(C2)CN(C(=O)N2CC4(COC(=O)N4)C2)C3)c1)C(F)(F)F [Example 356, 2-[6-[3-(trifluoromethylsulfoni-midoyl)benzyl]-2-azaspiro[3.3]heptane-2-carbonyl]-7-oxa-2,5-diazaspiro[3.4]octan-6-one]
0.15	N=[S@@](=O)(c1cccc(CC2CC3(C2)CN(C(=O)N2CC4(COC(=O)N4)C2)C3)c1)C(F)(F)F [Example 357, 2-[6-[3-(trifluoromethylsulfoni-midoyl)benzyl]-2-azaspiro[3.3]heptane-2-carbonyl]-7-oxa-2,5-diazaspiro[3.4]octan-6-one]
0.15	Cn1ncc(CC2CC3(C2)CN(C(=O)N2CC4(COC(=O)N4)C2)C3)c1C(F)(F)F [Example 352, 2-[6-[[1-methyl-5-(trifluoromethyl)pyrazol-4-yl]methyl]-2-azaspiro[3.3]heptane-2-carbonyl]-7-oxa-2,5-diazaspiro[3.4]octan-6-one]
0.15	O=C1COCC2(CN(C(=O)N3CC4(CC(Cc5ccc(S(=O)(=O)C(F)(F)F)cc5)C4)C3)C2)N1 [Example 296, 2-[6-[[4-(trifluoromethylsulfonyl)phenyl]methyl]-2-azaspiro[3.3]heptane-2-carbonyl]-8-oxa-2,5-diazaspiro[3.5]nonan-6-one]
0.09	N#Cc1cc(CC2CC3(C2)CN(C(=O)N2CC4(CCC(=O)N4)C2)C3)ccc1C(F)(F)F [Example 16, 5-[[2-(6-keto-2,5-diazaspiro[3.4]octane-2-carbonyl)-2-azaspiro[3.3]heptan-6-yl]methyl]-2-(trifluoromethyl)benzoni-trile]
0.01	O=C1NC2(CO1)CN(C(=O)N1CC3(CC(Cc4cccc(S(=O)(=O)C(F)(F)F)c4)C3)C1)C2 [Example 21, 2-[6-(3-triflylbenzyl)-2-azaspiro[3.3]heptane-2-carbonyl]-7-oxa-2,5-diazaspiro[3.4]octan-6-one]

same assay, conditions: unit nM

IC50 [nM]	SMILES
< 5	O=C1NC2(CO1)CN(C(=O)N1CC3(CC(Cc4ccc(F)cc4C(F)(F)F)C3)C1)C2 [Example 22, 2-[6-[4-fluoro-2-(trifluoromethyl)benzyl]-2-azaspiro[3.3]heptane-2-carbonyl]-7-oxa-2,5-diazaspiro[3.4]octan-6-one]

From US20240383904A1, “HETEROCYCLIC COMPOUNDS” (Hoffmann-La Roche Inc., priority 2021, published 2024)
